# Results published in patent US20060079453A1, “Hla binding peptides and their uses” (priority 2002, published 2006).
# Read-outs that look alike come from different tables or passages of the source. No end group written: not given here.
# Legend:
# Assay in all cases: biochemical
# Format in all cases: binding
# [1] = biological target: HLA-DR DRB5*0101 (DR51) (Homo sapiens, UniProt P01903+Q30154)
# [2] = biological target: HLA-DR DRB1*0901 (DR9) (Homo sapiens, UniProt P01903+P01911, A100R/A103E/D57H/D86V/F55Y/F60I/F76Y/I96F/K127E/L162R/M171V/P40D/Q125H/Q99R/R33Q/R42F/S133A/S66N/T210M/V115G/W38K/Y107V/Y59G/Y89S)
# [3] = biological target: HLA-DR DRB1*1302 (DR13) (Homo sapiens, UniProt P01903+P01911, A100E/A169T/K41T/L162R/M171V/P40S/Q125H/Q178H/Q39Y/Q99D/R42S/S66N/T262R/V115G/W38E/Y61H)
# Chain of HLA-DR DRB1*1302 (DR13) (P01903 26-254 limits assumed, other chains not shown): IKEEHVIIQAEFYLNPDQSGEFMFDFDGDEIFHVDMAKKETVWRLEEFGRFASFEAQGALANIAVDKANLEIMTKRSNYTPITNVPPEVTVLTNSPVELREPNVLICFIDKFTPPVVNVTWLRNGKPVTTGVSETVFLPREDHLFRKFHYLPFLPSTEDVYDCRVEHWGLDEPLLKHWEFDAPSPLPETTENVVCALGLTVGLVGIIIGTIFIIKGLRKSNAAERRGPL
# [4] = biological target: HLA-DR DRB1*0401 (DR4) (Homo sapiens, UniProt P01903+P01911, A100K/A169T/F76Y/I96L/K127E/L162R/M171V/N62H/P40V/Q125Y/R42H/S133A/S149N/S66Y/V115G/V209L/W38E)
# [5] = biological target: HLA-DR DRB1*0802 (DR8) (Homo sapiens, UniProt P01903+P01911, A100R/A103L/A169T/F76Y/H45Y/I96F/K41T/L162R/M171V/P40S/Q125H/Q178H/Q39Y/Q99D/R218S/R42G/S66Y/V115G/W38E)
# [6] = biological target: HLA-DR DRB1*0405 (DR4) (Homo sapiens, UniProt P01903+P01911, A100R/A169T/D86S/F76Y/I96L/K127E/L162R/M171V/N62H/P40V/Q125Y/R42H/S133A/S149N/S66Y/V115G/V209L/W38E)
# [7] = biological target: HLA-DR DRB1*0701 (DR7) (Homo sapiens, UniProt P01903+P01911, A100R/A102G/A103Q/D57E/D86V/E43K/F76Y/K127E/L162R/M171V/P40G/Q125H/Q99D/R33Q/R42Y/R54Q/S133A/S66F/T210M/V115G/Y107V/Y59L/Y89S)
# [8] = biological target: HLA-DR DRB1*0301 (DR3) (Homo sapiens, UniProt P01903+P01911, A100K/A102G/A103R/A169T/F55Y/I96L/K41T/L162R/M171V/P40S/Q125H/Q178H/Q39Y/R42S/S66N/T106N/T262R/W38E/Y61H)
# Chain of HLA-DR DRB1*0301 (DR3) (P01903 26-254 limits assumed, other chains not shown): as above
# [9] = biological target: HLA-DR DRB4*0101 (DR53) (Homo sapiens, UniProt P01903+P13762, G164S)
# [10] = biological target: HLA-DR DRB1*0101 (DR1) (Homo sapiens, UniProt P01903+P01911, A100R/D57E/F55L/F60I/F76Y/I96L/L162R/M171V/P40L/Q125E/R42F/V115G/Y59C)
# [11] = biological target: HLA-DR DRB1*1101 (DR11) (Homo sapiens, UniProt P01903+P01911, A100R/A169T/A87E/I96F/K41T/L162R/M171V/P40S/Q125H/Q178H/Q39Y/Q99D/R42S/S66Y/T262R/V115G/W38E)
# Chain of HLA-DR DRB1*1101 (DR11) (P01903 26-254 limits assumed, other chains not shown): as above
# [12] = biological target: HLA-DR DRB1*1501 (DR15) (Homo sapiens, UniProt P01903+P01911)
# [13] = biological target: HLA-DR DRB3*0101 (DR52) (Homo sapiens, UniProt P01903+P79483)
Compound,IC50 [1],IC50 [3],IC50 [4],IC50 [5],IC50 [6],IC50 [7],IC50 [8],IC50 [9],IC50 [10],IC50 [11],IC50 ([1]; DRB5 *0101),IC50 ([3]; DRBI *1302),IC50 ([4]; DRB1 *0401),IC50 ([6]; DRB1 *0405),IC50 ([7]; DRB1 *0701),IC50 ([9]; DRB4 *0101),IC50 ([10]; DRB1 *0101),IC50 ([12]; DRBI *1501),IC50 [13],IC50 [12],further results
CC(C)C[C@H](N)C(=O)N[C@@H](CCC(=O)O)C(=O)N1CCC[C@H]1C(=O)N[C@@H](Cc1c[nH]c2ccccc12)C(=O)N[C@@H](CC(N)=O)C(=O)N[C@@H](Cc1c[nH]cn1)C(=O)N1CCC[C@H]1C(=O)NCC(=O)N[C@@H](CO)C(=O)N[C@@H](CCC(N)=O)C(=O)N1CCC[C@H]1C(=O)N[C@@H](CCCCN)C(=O)N[C@H](C(=O)N[C@@H](C)C(=O)N[C@@H](CS)C(=O)N[C@H](C(=O)O)[C@@H](C)O)[C@@H](C)O,2.94 µM,> 11 µM,> 33.3 µM,69.2 µM,> 8.23 µM,> 72.3 µM,> 328 µM,0.092 µM,> 33.6 µM,> 15.3 µM,,,,,,,,,,,IC50 [2]: 34.5 µM
CC[C@H](C)[C@H](NC(=O)[C@H](CCC(=O)O)NC(=O)[C@@H](NC(=O)[C@H](Cc1ccc(O)cc1)NC(=O)[C@H](CCC(=O)O)NC(=O)[C@@H](N)CCC(=O)O)C(C)C)C(=O)N[C@@H](CCCNC(=N)N)C(=O)N[C@@H](CCC(N)=O)C(=O)N[C@H](C(=O)NCC(=O)N[C@@H](CC(=O)O)C(=O)N[C@@H](Cc1ccccc1)C(=O)N[C@@H](Cc1c[nH]cn1)C(=O)O)C(C)C,,,,13.9 µM,,,74.9 µM,,,,9.75 µM,> 1.9 µM,> 5.37 µM,0.026 µM,11.3 µM,2.06 µM,> 1.96 µM,2.06 µM,,,IC50 ([2]; DRB1 *0901): 11.2 µM; IC50 ([11]; DRB1 *1101): 4.68 µM
ALWRVSAEEY,,,,4.1 µM,,,> 76.6 µM,,,,> 35.6 µM,> 6.4 µM,6.54 µM,> 35.3 µM,7.95 µM,> 7.93 µM,> 6.34 µM,> 15.3 µM,,,IC50 ([2]; DRB1 *0901): 0.698 µM; IC50 ([11]; DRB1 *1101): 0.243 µM
GAPLGGAARALAHGV,,,,,,,,,,,12 µM,8.74 µM,,> 13 µM,,,0.69 µM,1.61 µM,> 71 µM,,IC50 ([11]; DRB1 *1101): 0.024 µM
GAPLGGLARALAHGV,4.26 µM,0.076 µM,13.9 µM,,> 13 µM,0.066 µM,352 µM,3.95 µM,0.537 µM,0.012 µM,,,,,,,,,124 µM,,
VGGVALLPRRGPRLGV,20.5 µM,> 15.4 µM,48.2 µM,,> 12.2 µM,61.6 µM,326 µM,25.7 µM,0.849 µM,,,,,,,,,,> 66.5 µM,0.0085 µM,
VNFYAWKRMEVGQQA,,,,0.035 µM,,,2.87 µM,,,,,14.8 µM,0.01 µM,0.015 µM,40.2 µM,1.49 µM,0.193 µM,,,,IC50 ([2]; DRB1 *0901): 1.24 µM; IC50 ([11]; DRB1 *1101): 0.05 µM
VGGVYLLRRAGPRLGV,0.0079 µM,> 15.4 µM,,,6.43 µM,0.433 µM,39.8 µM,30.7 µM,,0.067 µM,,,,,,,,,91.9 µM,0.0062 µM,
VGGVYLLARRGPRLGV,0.017 µM,,0.485 µM,,2.2 µM,0.595 µM,23.3 µM,4.34 µM,0.06 µM,0.0065 µM,,,,,,,,,17 µM,0.0028 µM,
VGGVYALPRRGPRLGV,0.034 µM,> 15.4 µM,25.7 µM,,> 12.2 µM,0.749 µM,349 µM,,,0.012 µM,,,,,,,,,> 66.5 µM,0.451 µM,
HLDMLRHLYQGCQVV,,,,,,,37.6 µM,,,,7.09 µM,2.88 µM,9.42 µM,3.59 µM,27 µM,0.163 µM,0.304 µM,0.359 µM,107 µM,,
FPDWQNYTPGPGTRF,,,,0.592 µM,,,> 224 µM,,,,> 20.5 µM,> 12 µM,23.4 µM,> 10.1 µM,59.6 µM,33.9 µM,,35.1 µM,,,IC50 ([2]; DRB1 *0901): 3.01 µM; IC50 ([11]; DRB1 *1101): > 51.3 µM
GAPLGAAARALAHGV,4.5 µM,15.1 µM,,,> 13 µM,6.49 µM,,16.5 µM,0.226 µM,0.036 µM,,,,,,,,,> 71 µM,3.92 µM,
GAALGGAARALAHGV,25.4 µM,19.3 µM,,,> 13 µM,29.8 µM,26.9 µM,,,0.168 µM,,,,,,,,,> 71 µM,4.48 µM,
VGGAYLLPRRGPRLGV,0.05 µM,24.7 µM,26.2 µM,,> 12.2 µM,0.703 µM,309 µM,37.6 µM,0.131 µM,,,,,,,,,,> 66.5 µM,0.0041 µM,
